Laboratory results from patent EP0136464A2, “Therapeutic compositions for oral use containing stable S-Adenosy1-L-Methionine salts” (BIORESEARCH S.p.A., priority 1983, dated 1985).
Read-outs that look alike come from different tables or passages of the source.

Key:
[1] = SAMe concentration in portal and aortic plasma after intestinal or oral (gastric probe) administration; format: in vivo, male Sprague-Dawley rats; settings: rat, SAMe-tri-p. toluenesulphonate, reduced by control values; for concentration at 1 h: 60 min; for concentration at 1.5 h: 90 min; for concentration at 2 h: 120 min; for concentration at 3 h: 180 min; for concentration at 4 h: 240 min
Experimental: The values given relate to tests carried out with SAMe-tri-p. toluenesulphonate, but substantially identical results were obtained with other known SAMe salts.
The drug concentrations in the portal or aortic plasma were evaluated as the absorption parameters.
The experiment was carried out on 72 male Sprague-Dawley rats of weight 210-260 g, which had fasted since the previous evening.
The animals, anesthetised with ether, were operated on in order to insert a capsule into the proximal jejunum. The incision in the intestinal wall was closed by ligature, and the animals were sutured.
The treatment scheme was as follows: • Intestinal administration: A capsule containing a weighed SAMe quantity corresponding to a dose of 32 mg/kg of body weight was inserted into the intestine, and 5 ml of H20/kg were administered by means of a gastric probe. • Oral administration: An empty capsule was inserted into the intestine, and 32 mg of SAMe/kg in aqueous solution (5 ml/kg) were • administered by means of a gastric probe. Controls: An empty capsule was inserted into the intestine, and 5 ml of H20/kg of body weight were administered by means of a gastric probe.
After 10, 20, 40, 60, 90, 120, 180 and 240 minutes from administration, 3 animals were sacrificed at a time in order to withdraw portal and aortic blood.
The SAMe concentrations in the plasma were determined by the Baldessarini and Kopin method (J. Neuroch. 13: 769, 1966).
The values represent the mean + standard error of 3 observations, reduced by the values found for the controls.

[2] = tested on: Edema induced by carrageen in the rat; experiment: Edema induced by carrageen in the rat (anti-inflammatory activity); format: in vivo, Male Sprague-Dawley rats
Experimental: (§1) In the experiments carried out on animals which received the SAMe orally, the drug was dissolved in physiological solution and administered by gastric probe in a volume of 0.5 ml/100 g of body weight. An equal volume of physiological solution was administered to the controls.
(§2) In the experiments in which SAMe was administered intraduodenally, the animals anesthetised with ether were subjected to laparotomy to allow the insertion into the duodenum of gelatin capsules (size 4) containing the product.
(§3) After inserting the capsule, the duodenum was sutured carefully so as not to traumatise the tissue and was then returned to its seat, the muscular and cutaneous layers then being re-composed and sutured.
(§4) The control animals received an empty gelatin capsule by the same procedure.
The antiphlogistic and analgesic activity of SAMe were evaluated by the following tests: • A. Anti-inflammatory activity • 1) Edema induced by carrageen in the rat.
Male Sprague-Dawley rats of about 170 g weight were used, having fasted since the evening preceding the experiment. Edema was induced by carrageen using the method described by Winter et al. (Proc. Soc. Exp. Biol. Med. 111, 544 (1962)).
The SAMe was administered orally one hour before the carrageen at doses of 25 and 50 mg/kg, and intraduodenally at doses of 25 and 50 mg/kg 80 minutes before the phlogogenic agent. […]

[3] = tested on: Reaction to heat, tail flick test in the rat; experiment: Reaction to heat, tail flick test in the rat (analgesic activity); format: in vivo, male Sprague-Dawley rats
Experimental: as §1, §2, §3, §4
1) Reaction to heat, tail flick test in the rat.
The analgesic activity of SAMe was evaluated in male Sprague-Dawley rats of about 190 g weight by the method of D'Amour and Smith (J. Pharmacol. Exp. Theor. 71, 74 (1941)).
The SAMe was administered either orally or in gelatin capsules into the duodenum in doses of 50 and 100 mg/kg.
Morphine was used as the comparison drug and was administered under the cutis at a dose of 5 mg/kg.
The analgesic activity was determined 30, 60 and 120 minutes after administration of the drugs.
The results represent the mean + S.E. for the number of animals indicated in parentheses. The morphine was administered under the cutis to rats which received one empty capsule into the duodenum.

[4] = aortic plasma, po, 32 mg/kg aqueous solution by gastric probe, read-out: SAMe concentration in the plasma, Oral treatment, Aortic
[5] = aortic plasma, 32 mg/kg capsule into proximal jejunum, read-out: SAMe concentration in the plasma, Intestinal treatment, Aortic
[6] = portal plasma, po, 32 mg/kg aqueous solution by gastric probe, read-out: SAMe concentration in the plasma, Oral treatment, Portal
[7] = portal plasma, 32 mg/kg capsule into proximal jejunum, read-out: SAMe concentration in the plasma, Intestinal treatment, Portal

Work on `C[S+](CC[C@H](N)C(=O)[O-])C[C@H]1O[C@@H](n2cnc3c(N)ncnc32)[C@H](O)[C@@H]1O` (stereo partly drawn) [SAMe, Sulpho-adenosyl-L-methionine] yielded a concentration at 10 min [1, 4] of 1100 ng/mL, a concentration at 20 min [1, 4] of 780 ng/mL and a concentration at 40 min [1, 4] of 720 ng/mL. It also gave a concentration at 1 h [1, 4] of 700 ng/mL, a concentration at 1.5 h [1, 4] of 680 ng/mL and a concentration at 2 h [1, 4] of 680 ng/mL. It also gave a concentration at 3 h [1, 4] of 660 ng/mL, a concentration at 4 h [1, 4] of 640 ng/mL and a concentration at 10 min [1, 5] of 13100 ng/mL. For the same compound, the concentration at 20 min [1, 5] was 8630 ng/mL, the concentration at 40 min [1, 5] was 4390 ng/mL and the concentration at 1 h [1, 5] was 1870 ng/mL. The concentration at 1.5 h [1, 5] was 1280 ng/mL, the concentration at 2 h [1, 5] was 880 ng/mL and the concentration at 3 h [1, 5] was 690 ng/mL. It also gave a concentration at 4 h [1, 5] of 530 ng/mL, a concentration at 10 min [1, 6] of 2930 ng/mL and a concentration at 20 min [1, 6] of 870 ng/mL. The concentration at 40 min [1, 6] was 840 ng/mL, the concentration at 1 h [1, 6] was 610 ng/mL and the concentration at 1.5 h [1, 6] was 540 ng/mL. The concentration at 2 h [1, 6] was 520 ng/mL, the concentration at 3 h [1, 6] was 520 ng/mL and the concentration at 4 h [1, 6] was 460 ng/mL. For the same compound, the concentration at 10 min [1, 7] was 25500 ng/mL, the concentration at 20 min [1, 7] was 9390 ng/mL and the concentration at 40 min [1, 7] was 2990 ng/mL. The concentration at 1 h [1, 7] was 2440 ng/mL, the concentration at 1.5 h [1, 7] was 1540 ng/mL and the concentration at 2 h [1, 7] was 770 ng/mL. The concentration at 3 h [1, 7] was 770 ng/mL, the concentration at 4 h [1, 7] was 640 ng/mL and the edema inhibition ([2]; intraduodenal administration, 50 mg/kg, 80 minutes before the phlogogenic agent) was “statistically significant edema inhibition”. The edema development ([2]; oral administration, 25 and 50 mg/kg, one hour before the carrageen, versus controls) was “not able to significantly modify the edema development”, the “Reaction time in minutes at various times after treatment” value (“Reaction time in minutes” for short) ([3]; administered into the duodenum, 50 mg/kg, 30 min) was 8.5 min and the “Reaction time in minutes” value ([3]; administered into the duodenum, 50 mg/kg, 60 min) was 8.2 min. The “Reaction time in minutes” value ([3]; administered into the duodenum, 50 mg/kg, 120 min) was 8.3 min, the “Reaction time in minutes” value ([3]; administered into the duodenum, 50 mg/kg, T0) was 4.8 min and the “Reaction time in minutes” value ([3]; administered into the duodenum, 100 mg/kg, 30 min) was 10.2 min. The “Reaction time in minutes” value ([3]; administered into the duodenum, 100 mg/kg, 60 min) was 9.6 min, the “Reaction time in minutes” value ([3]; administered into the duodenum, 100 mg/kg, 120 min) was 8.5 min and the “Reaction time in minutes” value ([3]; administered into the duodenum, 100 mg/kg, T0) was 5.0 min. For the same compound, the “Reaction time in minutes” value ([3]; administered orally, 50 mg/kg, 30 min) was 5.04 min, the “Reaction time in minutes” value ([3]; administered orally, 50 mg/kg, 60 min) was 4.09 min and the “Reaction time in minutes” value ([3]; administered orally, 50 mg/kg, 120 min) was 4.20 min. For the same compound, the “Reaction time in minutes” value ([3]; administered orally, 50 mg/kg, T0) was 4.60 min, the “Reaction time in minutes” value ([3]; administered orally, 100 mg/kg, 30 min) was 4.46 min and the “Reaction time in minutes” value ([3]; administered orally, 100 mg/kg, 60 min) was 4.73 min. For the same compound, the “Reaction time in minutes” value ([3]; administered orally, 100 mg/kg, 120 min) was 4.25 min, the “Reaction time in minutes” value ([3]; administered orally, 100 mg/kg, T0) was 4.41 min and the “reaction times, difference between treated animals and the controls” value ([3]; intraduodenal administration, 100 mg/kg, 30 minutes after treatment) was “highly significant difference (P<0.01)”. For the same compound, the “reaction time towards heat with respect to the controls” value ([3]; oral administration, 50 and 100 mg/kg) was “not able to modify the reaction time towards heat”.
For `CN1CC[C@]23c4c5ccc(O)c4O[C@H]2[C@@H](O)C=C[C@H]3[C@H]1C5` [Morphine, reference compound], the “analgesic activity with respect to the controls” value ([3]; in vivo, 5 mg/kg) was “powerful analgesic activity (P<0.01)”.
